Assay results from ChEMBL document CHEMBL4422623, “Synthesis of spiro-2,6-dioxopiperazine and spiro-2,6-dioxopyrazine scaffolds using amino acids in a three-component reaction to generate potential Sigma-1 (σ1) receptor selective ligands” (Eur J Med Chem, 2019).

Tests used:
[1] = target: 5-hydroxytryptamine receptor 2B (Homo sapiens, UniProt P41595); assay: Displacement of [3H]LSD from human 5-HT2B receptor expressed in HEK cells by radioligand binding assay; format: cell-based
Mu-type opioid receptor = Mu-type opioid receptor (Homo sapiens, UniProt P35372); assay: Displacement of [3H]DAMGO from human mu opioid receptor expressed in HEK cells by radioligand binding assay; format: cell-based
[2] = target: Sigma non-opioid intracellular receptor 1 (Cavia porcellus, UniProt Q60492); assay: Displacement of [3H]Pentazocine from guinea pig sigma-1 receptor by radioligand binding assay
[3] = target: Kappa-type opioid receptor (Homo sapiens, UniProt P41145); assay: Displacement of [3H]U69593 from human kappa opioid receptor expressed in HEK cells by radioligand binding assay; format: cell-based
D(4) dopamine receptor = target: T1, D(4) dopamine receptor (Homo sapiens, UniProt P21917); assay: Displacement of [3H]N-methylspiperone from human D4 receptor by radioligand binding assay
T1 sequence (P21917 whole entry): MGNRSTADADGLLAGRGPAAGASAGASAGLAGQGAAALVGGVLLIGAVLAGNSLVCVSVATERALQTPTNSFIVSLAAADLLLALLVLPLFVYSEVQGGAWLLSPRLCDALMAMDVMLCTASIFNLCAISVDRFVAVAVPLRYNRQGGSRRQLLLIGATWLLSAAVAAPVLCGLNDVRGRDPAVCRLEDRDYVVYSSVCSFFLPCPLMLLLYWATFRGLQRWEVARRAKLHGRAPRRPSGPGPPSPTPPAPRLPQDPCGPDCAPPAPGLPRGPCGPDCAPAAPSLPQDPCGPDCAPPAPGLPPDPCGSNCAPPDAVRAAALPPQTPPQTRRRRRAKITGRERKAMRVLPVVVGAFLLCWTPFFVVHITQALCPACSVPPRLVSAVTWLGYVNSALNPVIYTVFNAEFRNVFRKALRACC

[4] = target: 5-hydroxytryptamine receptor 7 (Homo sapiens, UniProt P34969); assay: Displacement of [3H]LSD from human 5-HT7 receptor expressed in HEK cells by radioligand binding assay; format: cell-based
[5] = target: T2, Sigma intracellular receptor 2 (Rattus norvegicus, UniProt Q5U3Y7); assay: Displacement of [3H]DTG from sigma-2 receptor in rat PC12 cells by radioligand binding assay; format: cell-based
T2 sequence (Q5U3Y7 whole entry): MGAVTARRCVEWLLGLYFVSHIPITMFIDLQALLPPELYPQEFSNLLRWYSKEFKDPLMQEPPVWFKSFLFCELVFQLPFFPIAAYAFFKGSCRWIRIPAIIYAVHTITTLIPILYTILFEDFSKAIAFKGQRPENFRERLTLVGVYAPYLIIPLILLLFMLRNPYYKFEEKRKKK

[6] = target: T3, Alpha-2A adrenergic receptor (Homo sapiens, UniProt P08913); assay: Displacement of […] from human adrenergic alpha 2A receptor expressed in MDCK cells by radioligand binding assay; format: cell-based
T3 sequence (P08913 whole entry): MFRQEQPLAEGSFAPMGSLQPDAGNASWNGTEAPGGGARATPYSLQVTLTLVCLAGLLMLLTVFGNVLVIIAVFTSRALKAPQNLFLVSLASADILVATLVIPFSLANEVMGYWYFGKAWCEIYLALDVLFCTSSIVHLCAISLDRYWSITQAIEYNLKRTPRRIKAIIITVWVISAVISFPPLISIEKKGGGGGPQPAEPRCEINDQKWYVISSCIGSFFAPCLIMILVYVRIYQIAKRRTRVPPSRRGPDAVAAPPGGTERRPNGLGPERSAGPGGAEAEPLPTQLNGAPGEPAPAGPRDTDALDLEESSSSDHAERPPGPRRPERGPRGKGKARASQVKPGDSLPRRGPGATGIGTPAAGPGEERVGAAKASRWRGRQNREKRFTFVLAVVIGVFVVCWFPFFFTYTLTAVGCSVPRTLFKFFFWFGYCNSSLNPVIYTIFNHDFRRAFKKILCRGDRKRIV

[7] = target: Sodium-dependent dopamine transporter (Homo sapiens, UniProt Q01959); assay: Displacement of [3H]WIN35428 from human DAT receptor expressed in HEK cells by radioligand binding assay; format: cell-based
Histamine H2 receptor = Histamine H2 receptor (Homo sapiens, UniProt P25021); assay: Binding affinity to human histamine 2 receptor expressed in HEK cells by radioligand binding assay; format: cell-based
Chain of Histamine H2 receptor (P25021 whole entry): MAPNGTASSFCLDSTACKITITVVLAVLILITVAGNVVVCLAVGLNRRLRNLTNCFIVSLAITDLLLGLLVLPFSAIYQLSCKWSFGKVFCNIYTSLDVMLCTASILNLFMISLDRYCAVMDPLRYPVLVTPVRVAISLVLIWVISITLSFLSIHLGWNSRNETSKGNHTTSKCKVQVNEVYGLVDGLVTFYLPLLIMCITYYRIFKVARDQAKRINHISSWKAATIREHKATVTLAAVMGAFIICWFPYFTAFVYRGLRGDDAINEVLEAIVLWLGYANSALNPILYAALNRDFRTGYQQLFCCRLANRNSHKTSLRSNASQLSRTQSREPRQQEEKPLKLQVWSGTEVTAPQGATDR

Chain of Mu-type opioid receptor (P35372 whole entry): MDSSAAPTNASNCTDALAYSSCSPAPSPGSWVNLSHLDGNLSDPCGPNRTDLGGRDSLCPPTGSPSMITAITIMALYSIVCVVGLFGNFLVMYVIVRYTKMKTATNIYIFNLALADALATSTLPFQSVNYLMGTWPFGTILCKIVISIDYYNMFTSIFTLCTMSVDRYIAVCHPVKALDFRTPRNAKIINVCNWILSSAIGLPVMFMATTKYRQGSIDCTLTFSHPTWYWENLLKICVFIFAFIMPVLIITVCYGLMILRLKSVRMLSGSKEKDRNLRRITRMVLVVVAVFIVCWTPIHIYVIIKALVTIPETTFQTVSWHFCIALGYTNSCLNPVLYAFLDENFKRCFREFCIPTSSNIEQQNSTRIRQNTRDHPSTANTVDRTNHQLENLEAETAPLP
Chain of 5-hydroxytryptamine receptor 2B (P41595 whole entry): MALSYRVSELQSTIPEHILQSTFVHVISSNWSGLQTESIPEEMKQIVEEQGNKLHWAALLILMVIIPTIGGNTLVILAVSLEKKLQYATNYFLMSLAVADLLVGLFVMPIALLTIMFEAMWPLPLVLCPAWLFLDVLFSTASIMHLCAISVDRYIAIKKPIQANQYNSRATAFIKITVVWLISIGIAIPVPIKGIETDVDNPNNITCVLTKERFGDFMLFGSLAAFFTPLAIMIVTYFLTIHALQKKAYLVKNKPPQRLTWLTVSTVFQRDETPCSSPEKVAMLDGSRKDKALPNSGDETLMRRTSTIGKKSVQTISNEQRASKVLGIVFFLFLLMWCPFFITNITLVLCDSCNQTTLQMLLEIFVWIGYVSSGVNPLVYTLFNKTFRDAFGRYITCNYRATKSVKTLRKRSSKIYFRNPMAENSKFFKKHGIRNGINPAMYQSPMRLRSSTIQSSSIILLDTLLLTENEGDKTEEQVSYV
Chain of Kappa-type opioid receptor (P41145 whole entry): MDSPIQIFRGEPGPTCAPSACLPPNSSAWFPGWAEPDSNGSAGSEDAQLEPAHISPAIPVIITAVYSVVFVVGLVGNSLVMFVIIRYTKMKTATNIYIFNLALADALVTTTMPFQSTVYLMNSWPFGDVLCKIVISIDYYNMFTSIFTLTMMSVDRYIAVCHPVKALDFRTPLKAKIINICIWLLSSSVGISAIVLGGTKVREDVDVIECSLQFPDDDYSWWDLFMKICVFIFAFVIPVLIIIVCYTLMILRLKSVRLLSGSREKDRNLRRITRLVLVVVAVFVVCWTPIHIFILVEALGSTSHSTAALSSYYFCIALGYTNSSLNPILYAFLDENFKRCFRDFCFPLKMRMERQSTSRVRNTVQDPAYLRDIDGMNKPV
Chain of Sigma non-opioid intracellular receptor 1 (Q60492 whole entry): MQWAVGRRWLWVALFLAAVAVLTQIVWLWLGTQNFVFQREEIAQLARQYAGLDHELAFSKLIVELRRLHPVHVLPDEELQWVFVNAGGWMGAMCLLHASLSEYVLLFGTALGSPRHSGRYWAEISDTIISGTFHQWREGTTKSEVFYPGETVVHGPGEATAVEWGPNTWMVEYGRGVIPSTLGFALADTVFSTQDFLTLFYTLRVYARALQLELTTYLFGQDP
Chain of 5-hydroxytryptamine receptor 7 (P34969 whole entry): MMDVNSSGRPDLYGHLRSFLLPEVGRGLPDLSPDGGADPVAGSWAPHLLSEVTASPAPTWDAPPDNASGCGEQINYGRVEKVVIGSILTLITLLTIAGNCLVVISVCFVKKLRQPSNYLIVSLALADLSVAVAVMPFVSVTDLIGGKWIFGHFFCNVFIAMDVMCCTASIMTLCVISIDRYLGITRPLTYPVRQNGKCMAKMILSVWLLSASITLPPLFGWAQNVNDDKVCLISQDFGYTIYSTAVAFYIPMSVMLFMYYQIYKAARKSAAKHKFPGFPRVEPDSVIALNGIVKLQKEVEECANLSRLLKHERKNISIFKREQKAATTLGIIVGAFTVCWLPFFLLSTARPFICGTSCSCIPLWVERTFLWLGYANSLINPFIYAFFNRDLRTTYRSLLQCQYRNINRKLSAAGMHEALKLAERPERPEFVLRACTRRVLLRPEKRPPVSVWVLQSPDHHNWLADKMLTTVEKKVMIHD
Chain of Sodium-dependent dopamine transporter (Q01959 whole entry): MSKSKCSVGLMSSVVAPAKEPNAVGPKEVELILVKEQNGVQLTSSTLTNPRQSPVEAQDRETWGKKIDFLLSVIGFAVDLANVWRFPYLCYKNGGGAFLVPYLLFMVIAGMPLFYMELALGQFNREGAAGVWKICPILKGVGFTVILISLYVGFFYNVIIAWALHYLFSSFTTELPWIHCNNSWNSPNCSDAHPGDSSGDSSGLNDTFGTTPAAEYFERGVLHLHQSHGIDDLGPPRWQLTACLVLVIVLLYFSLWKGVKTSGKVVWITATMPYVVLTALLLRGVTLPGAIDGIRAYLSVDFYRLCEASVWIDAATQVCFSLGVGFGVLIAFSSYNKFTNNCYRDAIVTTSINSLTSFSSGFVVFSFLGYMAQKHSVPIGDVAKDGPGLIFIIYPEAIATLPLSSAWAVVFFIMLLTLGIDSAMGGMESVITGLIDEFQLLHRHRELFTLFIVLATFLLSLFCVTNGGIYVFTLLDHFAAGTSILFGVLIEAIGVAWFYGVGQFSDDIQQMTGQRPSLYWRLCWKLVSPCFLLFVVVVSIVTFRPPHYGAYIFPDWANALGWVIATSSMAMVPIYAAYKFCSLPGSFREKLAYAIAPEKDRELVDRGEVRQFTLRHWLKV

SMILES	Ki [1] [µM]	Ki (Mu-type opioid receptor) [µM]	Ki [2] [µM]	Ki [3] [µM]	Ki (D(4) dopamine receptor) [µM]	Ki [4] [µM]	Ki [5] [µM]	Ki [6] [µM]	Ki [7] [µM]	Ki (Histamine H2 receptor) [µM]
Cc1cccc(C)c1N1C(=O)CNC2(CCN(C)CC2)C1=O	0.742	10								
CC1=NC2(CCN(C)CC2)C(=O)N(c2c(C)cccc2C)C1=O	0.231		0.0086	1.71	1.28	2.77	0.696	3.36	2.56	0.823
Cc1cccc(C)c1N1C(=O)[C@H](CO)NC2(CCN(C)CC2)C1=O	2.05	1.63								
Cc1cccc(C)c1N1C(=O)[C@H](CC2CNc3ccccc32)NC2(CCN(C)CC2)C1=O (stereo partly specified)	0.84	0.993								0.546
